Data from patent publication US20200277246A1, “TREATMENT METHOD, COMPOUNDS, AND METHOD OF INCREASING TRPV2 ACTIVITY” (THE FEINSTEIN INSTITUTE FOR MEDICAL RESEARCH, priority 2015, published 2020).
“And” between values parts separate entries of the source, which are not always exact repeats. Equal entries are not always repeated.

Experiments:
[1] = system: FLS from RA patients; experiment: Matrigel transwell invasion assay, RA FLS; format: cell-based, human
Description: Human synovial tissues were obtained from RA patients undergoing elective orthopedic surgery. All patients met the American College of Rheumatology criteria for RA (Arnett et al, “The American Rheumatism Association 1987 Revised Criteria for the Classification of Rheumatoid Arthritis,” Arthritis Rheum. 31 (3):315-324 (1988), which is hereby incorporated by reference in its entirety). Informed consent was obtained from all participating subjects under an Institutional Review Board-approved protocol through the Feinstein Institute's Tissue Donation Program.
The in vitro invasiveness of FLS was assayed in a transwell system using Matrigel-coated inserts (BD Biosciences, Franklin Lakes, N.J.), as previously described (Tolboom et al., “Invasiveness of Fibroblast-Like Synoviocytes is an Individual Patient Characteristic Associated with the Rate of Joint Destruction in Patients with Rheumatoid Arthritis,” Arthritis Rheum. 52 (7):1999-2002 (2005); Laragione et al., “The Arthritis Severity Locus Cia5d is a Novel Genetic Regulator of the Invasive Properties of Synovial Fibroblasts,” Arthritis Rheum. 58 (8):2296-2306 (2008), which are hereby incorporated by reference in their entirety). […] The opposite side of the insert was stained with Crystal Violet (Sigma) and the total number of cells that invaded through Matrigel counted at 100× magnification. […]

[2] = system: MMP-2; experiment: IL-1β-induced MMP-2 expression (qPCR) in RA FLS; format: cell-based, human; conditions: IL-1β 10 ng/ml 48 hours, 10 μM, n=6 RA
Method: The qPCR conditions used have been previously described (Laragione et al., “Cia5d Regulates a New Fibroblast-Like Synoviocyte Invasion-Associated Gene Expression Signature,” Arthritis Res. Ther. 10 (4):R92 (2008), which is hereby incorporated by reference in its entirety). Briefly, total RNA (200 ng) from each sample was reverse transcribed using Superscript III (Invitrogen). MMP-2 (forward-[…] (SEQ ID NO: 1); reverse-GGTATCCATCGCCATGCT (SEQ ID NO: 2) and MMP-3 (forward-CCAGGTGTGGAGTTCCTGA (SEQ ID NO: 3); reverse-[…] (SEQ ID NO: 4)) primers were designed based on the Universal ProbeLibrary (Roche, Indianapolis, Ind.). Reactions were prepared with Absolute Blue qPCR Mix (Thermo Fisher, Waltham, Mass.), and run in duplicate on a LightCycler 480 thermocycler (Roche) using Relative Quantitative Software (Roche). Ct (threshold cycle) values were adjusted for GAPDH in each sample (ΔCt). Fold differences were calculated with the 2^−ΔΔCt method (Livak et al., “Analysis of Relative Gene Expression Data Using Real-Time Quantitative PCR and the 2(-Delta Delta C(T)) Method,” Methods 25 (4):402-408 (2001), which is hereby incorporated by reference in its entirety).

[3] = system: FLS; experiment: MTT assay; format: cell-based; conditions: 24 hours, concentrations of the invasion studies
Method: 4×10^4 FLS per well were plated in triplicate in 96-well plates in 100 μl of complete media. Cells were allowed to adhere for 24 hours. Media was then changed and O1821, LER13, or vehicle was added at the same concentrations used for the invasion studies. After 24 hours (same duration of the invasion experiments) viable cells were determined by the colorimetric MTT kit (Millipore) according to the manufacturer's instructions.

[4] = system: glioblastoma cell line; experiment: Cancer cell invasion, glioblastoma; format: cell-based
[5] = system: phosphorylated Erk1/2; experiment: FLS levels of phosphorylated Erk1/2; format: cell-based
[6] = system: Trpv2; conditions: cited from earlier work
[7] = system: cannabinoid receptors; conditions: cited from earlier work
[8] = target: T1, Trpv2 (Rattus norvegicus, UniProt Q9WUD2); experiment: Single cell patch clamp of DA FLS; format: cell-based; parameters: endogenous in cells; host or cells: FLS from DA rats with pristane-induced arthritis; conditions: perfusion with 30 μM
T1 sequence (Q9WUD2 1-761): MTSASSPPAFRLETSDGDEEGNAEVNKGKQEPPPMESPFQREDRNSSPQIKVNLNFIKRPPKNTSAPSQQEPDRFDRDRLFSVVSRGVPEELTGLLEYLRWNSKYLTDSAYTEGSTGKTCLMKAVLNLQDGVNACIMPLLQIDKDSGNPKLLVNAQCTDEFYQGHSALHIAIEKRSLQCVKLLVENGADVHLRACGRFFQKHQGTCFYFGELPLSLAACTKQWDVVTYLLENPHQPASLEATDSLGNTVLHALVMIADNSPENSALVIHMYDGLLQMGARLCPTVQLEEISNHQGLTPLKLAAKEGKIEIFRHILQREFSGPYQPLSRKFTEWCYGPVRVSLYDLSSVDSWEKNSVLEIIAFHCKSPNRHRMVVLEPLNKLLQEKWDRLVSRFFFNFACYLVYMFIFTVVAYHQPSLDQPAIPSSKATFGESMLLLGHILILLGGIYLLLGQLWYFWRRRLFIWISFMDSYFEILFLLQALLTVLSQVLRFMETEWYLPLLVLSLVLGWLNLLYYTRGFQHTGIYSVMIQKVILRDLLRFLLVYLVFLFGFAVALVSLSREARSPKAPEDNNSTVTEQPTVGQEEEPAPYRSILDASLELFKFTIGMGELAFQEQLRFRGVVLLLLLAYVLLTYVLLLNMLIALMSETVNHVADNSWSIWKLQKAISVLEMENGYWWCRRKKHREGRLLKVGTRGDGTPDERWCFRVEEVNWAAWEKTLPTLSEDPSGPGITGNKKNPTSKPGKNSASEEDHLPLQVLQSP
Method: FLS obtained from DA rats with PIA were plated in culture medium onto glass coverslips and allowed to adhere at 37° C. Recordings were performed in the whole-cell configuration of the patch-clamp technique at room temperature using an EPC10-USB amplifier (HEKA instruments, Bellmore, N.Y.). […] The bath solution contained 132 mM NaCl, 5.4 mM KCl, 1.8 mM CaCl2, 0.8 mM MgCl2, 10 mM HEPES, and 10 mM glucose, at pH 7.4. O1821-activated currents were elicited with a 600 ms ramp from −100 to +100 mV from a holding potential of −107 mV. Addition of O1821 was accomplished by complete bath exchange.

C=C(C)[C@@H]1CCC(C)=C[C@H]1c1c(O)cc(C)cc1O [Compound O1821]
Reduction of RA FLS invasion ([1]; 20 μM): 90%
Reduction of RA FLS invasion ([1]; 50 μM): 99.4%
Decrease of IL-1β-induced MMP-2 expression [2]: 45.6% and 50%
Toxicity to FLS (cell mortality) [3]: not toxic
Cell invasion [4]: significantly reduce cell invasion
Levels of phosphorylated Erk1/2 [5]: did not affect
Stimulation of Trpv2 [6]: stimulates
Stimulation of cannabinoid receptors [7]: does not stimulate
Trpv2 channel current [8]: induced channel opening
